Reference: PMC8933493, “Mechanism and biomass association of glucuronoyl esterase: an α/β hydrolase with potential in biomass conversion” (Nature Communications, 2022)

Experiments:
OtCE15A [1] = target: T1, OtCE15A (Opitutus terrae, UniProt B1ZMF4, R268A); experiment: X-ray crystal structure after […] s soak in saturated BnzGlcA; assay type: binding; details: covalent; glucuronoyl acyl-enzyme intermediate formed from the soaked substrate; pH 6.5 crystals, 10% DMSO
T1 construct: gene Oter_0116; His6-tag; no CBM; E. coli BL21(DE3); IMAC and size exclusion; active-site Ser267, Arg268, Glu290, Asp356, His408

OtCE15A [2] = target: T2, OtCE15A (Opitutus terrae, UniProt B1ZMF4); experiment: continuous coupled assay, K-URONIC kit; Arrhenius analysis of kcat; assay type: biochemical; details: 20 to 40 °C in 5 °C steps
T2 construct: gene Oter_0116; His6-tag; no CBM; E. coli BL21(DE3); IMAC and size exclusion; active-site Ser267, Arg268, Glu290, Asp356, His408

OtCE15A [3] = target: T2, OtCE15A; experiment: continuous coupled assay, K-URONIC kit (Megazyme); assay type: biochemical; details: duplicate, at least 8 substrate concentrations
Description: continuous coupled assay, K-URONIC kit (Megazyme) on OtCE15A

T2 sequence (B1ZMF4 entry or part of it): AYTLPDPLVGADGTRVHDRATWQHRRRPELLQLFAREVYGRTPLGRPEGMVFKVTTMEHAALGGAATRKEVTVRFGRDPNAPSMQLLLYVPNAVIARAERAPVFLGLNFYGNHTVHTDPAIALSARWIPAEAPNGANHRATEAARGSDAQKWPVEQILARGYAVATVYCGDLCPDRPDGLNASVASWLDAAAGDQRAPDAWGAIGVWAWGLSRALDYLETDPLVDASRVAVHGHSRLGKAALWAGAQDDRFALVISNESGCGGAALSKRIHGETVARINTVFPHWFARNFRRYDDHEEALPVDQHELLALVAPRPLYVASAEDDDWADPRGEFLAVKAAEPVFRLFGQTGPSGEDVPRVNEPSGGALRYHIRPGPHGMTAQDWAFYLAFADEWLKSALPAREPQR
T1 sequence (B1ZMF4 entry or part of it R268A): as the sequence (B1ZMF4 entry or part of it) above, with R236A counted along it

| Structure (SMILES) | X-ray crystal structure after 30 s soak in saturated BnzGlcA (OtCE15A [1]) | continuous coupled assay, K-URONIC kit; Arrhenius analysis of kcat (OtCE15A [2]) | Km (OtCE15A [3]) [µM] |
| --- | --- | --- | --- |
| O=C(OCc1ccccc1)[C@H]1OC(O)[C@H](O)[C@@H](O)[C@@H]1O (stereo partly drawn) [BnzGlcA, benzyl GlcA] | after soaking with the BnzGlcA substrate clearly shows the formation of a CI | small substrate benzyl GlcA (BnzGlcA) by determining kcat at different temperatures |  |
| COC(=O)[C@H]1OC(O)[C@H](O)[C@@H](O)[C@@H]1O (stereo partly drawn) [MeGlcA, GlcA methyl ester] |  |  | 2770 ± 150 |
